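In this assay, cells in 96-well plates receive the compound at five concentrations for 48 hours. Endpoints are linearly interpolated between the surrounding concentrations. GI50 = concentration required for 50% inhibition of growth. The concentration for full growth arrest is given as TGI.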
Experiments:
Assay in all cases: inhibition of tumour cell growth, NCI panel, 48 h
[1] = system: A498 renal
[2] = system: CAKI-1 renal
[3] = system: MDA-MB-231 breast
[4] = system: SNB-19 CNS
[5] = system: HOP-92 NSCLC
[6] = system: SK-MEL-28 melanoma
[7] = system: OVCAR-5 ovarian
[8] = system: NCI-H23 lung
[9] = system: TK-10 renal
[10] = system: 786-0 renal

Row | SMILES | GI50 [1] | TGI [1] | GI50 [2] | TGI [2] | GI50 [3] | TGI [3] | GI50 [4] | TGI [4] | GI50 [5] | TGI [5] | GI50 [6] | TGI [6] | GI50 [7] | TGI [7] | GI50 [8] | TGI [8] | GI50 [9] | TGI [9] | GI50 [10] | TGI [10]
1 | COc1ccc(-c2ccc(/C=C/C(=O)NO)cc2)cc1 | 1.4 µM | 3.76 µM | 1.42 µM | 6.11 µM | 1.17 µM | 13.4 µM | 2.42 µM | 11.4 µM | 1.19 µM | 4.98 µM | 2.45 µM | 13 µM | 1.74 µM | 17.7 µM | 1.53 µM | 6.18 µM | 1.55 µM | 21.3 µM | 0.99 µM | 3.79 µM
2 | COc1ccc(OC)c(-c2nc3sccn3c2/C=C2/C(=O)Nc3ccc(Cl)cc32)c1 | 20.8 µM | 38.8 µM | 30.1 µM | > 100 µM | 20.3 µM | 55.3 µM | 33.6 µM | > 100 µM | 24.4 µM | > 100 µM | 20.6 µM | 39.8 µM | 30 µM | > 100 µM | 21.4 µM | 51.4 µM | 29.9 µM | > 100 µM | 44.7 µM | > 100 µM
3 | CN(C)C[C@H]1CC[C@@H](CN(C)C)C1=O |  | > 50 µM | 0.297 µM |  |  | 17.3 µM |  | > 50 µM |  | 20.5 µM |  | 12.2 µM |  | 16.3 µM |  | 18.4 µM |  | 15 µM |  | 12.8 µM
4 | COc1ccccc1/C=C\c1cnnc2ccccc12 |  | > 10 µM |  | > 10 µM |  | > 10 µM |  | > 10 µM |  | 7.61 µM |  | > 10 µM |  | > 10 µM |  | > 10 µM |  | > 10 µM |  | > 10 µM
5 | O=C(O)c1c(O)c2cc(Br)ccc2oc1=O |  | > 100 µM |  | > 100 µM |  | > 100 µM |  | > 100 µM |  | > 100 µM |  | > 100 µM |  | > 100 µM |  | > 100 µM |  | > 100 µM |  | > 100 µM
6 | NC(=O)CCC(NC(=O)OCc1ccccc1)C(=O)OCC(=O)c1ccccc1 (stereo not drawn) | > 100 µM | > 100 µM | > 100 µM | > 100 µM | > 100 µM | > 100 µM | > 100 µM | > 100 µM | > 100 µM | > 100 µM | 43.9 µM | > 100 µM | > 100 µM | > 100 µM | > 100 µM | > 100 µM | > 100 µM | > 100 µM | > 100 µM | > 100 µM
7 | COc1ccc(/C(C)=C(\c2ccc(Cl)cc2)c2ccc(OCCN3CCCC3)cc2)cc1 | 4.02 µM | 8.38 µM | 4.85 µM | 9.29 µM | 3.64 µM | 7.8 µM | 4.54 µM | 9.09 µM | 4.17 µM | 8.7 µM | 3.52 µM | 7.54 µM | 4.32 µM | 8.65 µM | 4.29 µM | 8.98 µM | 5.49 µM | 10.4 µM | 2.43 µM | 6.85 µM
8 | CN(C)CCCNc1nn2c(=O)c3ccccc3nc2c2ccccc12 | 9.06 µM | 21.4 µM | 4.49 µM | 25.3 µM | 8.02 µM | 28.1 µM | 13.2 µM | 43.9 µM | 4.13 µM | 59.3 µM | 15.8 µM | 29.3 µM | 12.8 µM | 34.3 µM | 5.89 µM | 24.7 µM | 11.1 µM | 45.4 µM | 10.9 µM | 23.7 µM
9 | C=C(CN1CCN(c2ccccc2OC)CC1)c1ccc(C(=O)Nc2ccccc2N)cc1 |  |  | 3.86 µM | 14.3 µM | 0.315 µM | 4.4 µM | 12.1 µM | > 50 µM | 5.73 µM | 44.5 µM | 2.14 µM | > 50 µM | 7.56 µM | 22.8 µM | 0.447 µM | 3.24 µM | 1.2 µM | 9.07 µM | 2.45 µM | 29.1 µM
10 | COc1cc(C)c(C(=O)O[C@H]2[C@H](O[C@H]3[C@@H](O)COC(O[C@H]4C[C@H]5[C@@H]6CC=C7C[C@@H](O)CC[C@]7(C)[C@H]6CC[C@]5(C)[C@H]4[C@H](C)C(=O)CCC(C)C)[C@@H]3OC(C)=O)OC[C@@H](O)[C@@H]2O)c(C)c1 (stereo partly drawn) | < 0.01 µM | < 0.01 µM | < 0.01 µM | 1.18 µM | 0.517 µM | 16.1 µM | < 0.01 µM | 4.93 µM | < 0.01 µM | 2.58 µM | < 0.01 µM | 0.0192 µM | 0.58 µM | 18.5 µM | 0.384 µM | 14.2 µM | 0.704 µM | 16.6 µM | < 0.01 µM | 2.55 µM
11 | Oc1ccc2oc3ncc(Cl)c(-c4ccccc4)c3c2c1 | > 100 µM | > 100 µM | > 100 µM | > 100 µM | > 100 µM | > 100 µM | > 100 µM | > 100 µM | > 100 µM | > 100 µM | > 100 µM | > 100 µM | > 100 µM | > 100 µM | > 100 µM | > 100 µM | > 100 µM | > 100 µM | 0.0939 µM | > 100 µM
12 | O=C(c1ccccc1Nc1ccnc(C(F)(F)F)c1)N1CCN(c2cccc(Cl)c2)CC1 | 12.7 µM | 46.3 µM | 21 µM | 75 µM | 16.1 µM | 56 µM | 26.1 µM | > 100 µM | 0.914 µM | 25 µM | 26.5 µM | > 100 µM | 27.9 µM | > 86.4 µM | 17.6 µM | > 100 µM | 30.8 µM | > 100 µM | 23.2 µM | > 84 µM
13 | CC1(C)CCC[C@]23C(=O)O[C@](O)(C(=O)C4=C[C@@](C)(/C=C/CCCc5ccc6ccc7cccc8ccc5c6c78)CC[C@@]42O)[C@@H]13 | 0.15 µM | 0.288 µM | 0.183 µM | 0.364 µM | 0.197 µM | 0.431 µM | 0.188 µM | 0.414 µM | 0.148 µM | 0.302 µM | 0.144 µM | 0.317 µM | 0.187 µM | 0.376 µM | 0.178 µM | 0.376 µM | 0.196 µM | 0.423 µM | 0.182 µM | 0.343 µM

— PubChem BioAssay (NCI)
